Publication PMC9329436, “Optimization of the 4-anilinoquin(az)oline scaffold as epidermal growth factor receptor (EGFR) inhibitors for chordoma utilizing a toxicology profiling assay platform” (Scientific Reports, 2022)
Where two headings read alike, the source gives them in different places.

Assays:
Format in all cases: biochemical
[1] = biological target: 320 wild-type protein kinases (Homo sapiens, UniProt P10721); conditions: KIT, singlicate
Text: (§1) Table S4. Profiling of two compounds at two concentrations against 320 wild-type protein kinases; singlicate measurement; Residual activities (% of control).

[2] = biological target: 320 wild-type protein kinases (Homo sapiens, UniProt P14616); conditions: INSR-R, singlicate
Text: as §1

[3] = biological target: 320 wild-type protein kinases (Homo sapiens, UniProt P24723); conditions: PKC-eta, singlicate
Text: as §1

[4] = biological target: T1, 320 wild-type protein kinases (Homo sapiens, UniProt Q04771); conditions: singlicate
T1 sequence (Q04771 21-509): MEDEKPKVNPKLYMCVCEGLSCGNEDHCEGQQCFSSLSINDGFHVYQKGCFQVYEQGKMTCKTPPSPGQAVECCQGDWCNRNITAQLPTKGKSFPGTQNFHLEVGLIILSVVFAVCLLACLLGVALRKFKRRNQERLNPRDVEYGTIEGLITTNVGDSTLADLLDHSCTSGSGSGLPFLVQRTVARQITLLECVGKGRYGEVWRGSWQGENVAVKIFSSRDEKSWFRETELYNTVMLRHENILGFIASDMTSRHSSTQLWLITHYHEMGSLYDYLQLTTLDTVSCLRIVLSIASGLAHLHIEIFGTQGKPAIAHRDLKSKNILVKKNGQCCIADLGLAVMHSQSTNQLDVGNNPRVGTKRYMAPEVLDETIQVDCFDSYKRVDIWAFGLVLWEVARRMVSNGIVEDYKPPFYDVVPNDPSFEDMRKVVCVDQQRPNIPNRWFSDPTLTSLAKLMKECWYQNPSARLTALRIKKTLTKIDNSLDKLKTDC
Text: as §1

[5] = biological target: T2, 320 wild-type protein kinases (Homo sapiens, UniProt Q06418); conditions: kinase TYRO3, singlicate
T2 sequence (Q06418 41-890): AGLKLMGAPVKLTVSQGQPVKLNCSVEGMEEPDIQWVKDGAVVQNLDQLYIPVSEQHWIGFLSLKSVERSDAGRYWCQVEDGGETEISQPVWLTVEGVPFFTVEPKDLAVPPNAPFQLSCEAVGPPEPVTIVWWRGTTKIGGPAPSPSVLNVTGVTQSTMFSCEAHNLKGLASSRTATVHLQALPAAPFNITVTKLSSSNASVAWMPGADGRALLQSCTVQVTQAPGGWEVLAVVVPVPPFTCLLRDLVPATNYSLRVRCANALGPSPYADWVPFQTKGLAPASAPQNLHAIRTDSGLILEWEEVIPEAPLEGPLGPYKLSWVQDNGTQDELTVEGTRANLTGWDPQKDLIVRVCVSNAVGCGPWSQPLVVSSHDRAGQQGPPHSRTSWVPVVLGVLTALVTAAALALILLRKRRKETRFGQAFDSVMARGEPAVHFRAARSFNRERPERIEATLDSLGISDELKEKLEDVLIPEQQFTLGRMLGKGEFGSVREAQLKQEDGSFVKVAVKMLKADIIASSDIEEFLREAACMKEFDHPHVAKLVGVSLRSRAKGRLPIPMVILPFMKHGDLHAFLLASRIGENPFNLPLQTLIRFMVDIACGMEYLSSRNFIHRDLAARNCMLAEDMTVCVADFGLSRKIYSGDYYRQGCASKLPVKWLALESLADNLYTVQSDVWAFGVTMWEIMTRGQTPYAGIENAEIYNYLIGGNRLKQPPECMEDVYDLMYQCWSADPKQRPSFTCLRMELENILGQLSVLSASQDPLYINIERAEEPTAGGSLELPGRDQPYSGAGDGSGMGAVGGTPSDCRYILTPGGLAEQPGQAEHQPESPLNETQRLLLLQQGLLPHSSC
Text: as §1

[6] = biological target: 320 wild-type protein kinases (Homo sapiens, UniProt Q86Y07); conditions: kinase VRK2, singlicate
Text: as §1

[7] = biological target: T3, 320 wild-type protein kinases (Homo sapiens, UniProt Q8TD08); conditions: singlicate
T3 sequence (Q8TD08 1-544): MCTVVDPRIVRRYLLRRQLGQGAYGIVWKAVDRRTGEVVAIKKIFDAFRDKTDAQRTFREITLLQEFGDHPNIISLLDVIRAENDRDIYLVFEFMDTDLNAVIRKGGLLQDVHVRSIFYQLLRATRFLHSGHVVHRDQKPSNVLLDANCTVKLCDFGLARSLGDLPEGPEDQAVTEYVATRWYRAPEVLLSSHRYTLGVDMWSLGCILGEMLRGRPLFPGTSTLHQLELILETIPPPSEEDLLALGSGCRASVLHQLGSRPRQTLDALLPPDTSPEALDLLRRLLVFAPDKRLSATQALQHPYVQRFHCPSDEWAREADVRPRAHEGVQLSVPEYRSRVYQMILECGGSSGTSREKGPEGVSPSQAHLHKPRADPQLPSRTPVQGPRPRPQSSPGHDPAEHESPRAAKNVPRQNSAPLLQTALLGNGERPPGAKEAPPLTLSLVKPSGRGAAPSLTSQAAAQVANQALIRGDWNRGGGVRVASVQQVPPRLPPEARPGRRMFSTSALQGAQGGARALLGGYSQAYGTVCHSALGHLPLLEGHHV
Text: as §1

Sequence of 320 wild-type protein kinases (Homo sapiens, UniProt P10721) (P10721 26-976): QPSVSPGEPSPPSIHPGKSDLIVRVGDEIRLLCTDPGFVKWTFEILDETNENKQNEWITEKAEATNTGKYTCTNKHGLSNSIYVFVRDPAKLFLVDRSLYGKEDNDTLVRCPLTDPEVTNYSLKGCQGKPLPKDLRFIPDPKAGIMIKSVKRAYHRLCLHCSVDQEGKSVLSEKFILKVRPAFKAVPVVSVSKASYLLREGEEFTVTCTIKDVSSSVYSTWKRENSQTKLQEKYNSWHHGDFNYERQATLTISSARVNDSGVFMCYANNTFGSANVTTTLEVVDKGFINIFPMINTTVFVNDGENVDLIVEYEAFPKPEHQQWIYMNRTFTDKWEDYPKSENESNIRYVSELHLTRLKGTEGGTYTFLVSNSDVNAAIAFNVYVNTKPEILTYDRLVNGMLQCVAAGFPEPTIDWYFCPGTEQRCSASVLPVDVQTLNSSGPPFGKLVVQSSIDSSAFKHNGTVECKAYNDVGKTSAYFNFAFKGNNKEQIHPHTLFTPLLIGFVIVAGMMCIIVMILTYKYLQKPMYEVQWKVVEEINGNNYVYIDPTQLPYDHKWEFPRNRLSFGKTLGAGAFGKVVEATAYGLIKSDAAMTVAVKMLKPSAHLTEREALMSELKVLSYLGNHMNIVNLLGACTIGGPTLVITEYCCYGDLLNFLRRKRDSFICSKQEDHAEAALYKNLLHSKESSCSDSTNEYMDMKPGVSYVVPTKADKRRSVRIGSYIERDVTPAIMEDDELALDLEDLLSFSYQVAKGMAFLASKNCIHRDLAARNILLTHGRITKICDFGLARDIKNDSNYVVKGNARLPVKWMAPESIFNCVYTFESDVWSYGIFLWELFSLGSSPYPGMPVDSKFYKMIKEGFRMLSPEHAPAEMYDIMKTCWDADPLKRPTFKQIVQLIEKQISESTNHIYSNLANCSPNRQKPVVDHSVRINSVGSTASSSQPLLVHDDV
Sequence of 320 wild-type protein kinases (Homo sapiens, UniProt P14616) (P14616 27-1297): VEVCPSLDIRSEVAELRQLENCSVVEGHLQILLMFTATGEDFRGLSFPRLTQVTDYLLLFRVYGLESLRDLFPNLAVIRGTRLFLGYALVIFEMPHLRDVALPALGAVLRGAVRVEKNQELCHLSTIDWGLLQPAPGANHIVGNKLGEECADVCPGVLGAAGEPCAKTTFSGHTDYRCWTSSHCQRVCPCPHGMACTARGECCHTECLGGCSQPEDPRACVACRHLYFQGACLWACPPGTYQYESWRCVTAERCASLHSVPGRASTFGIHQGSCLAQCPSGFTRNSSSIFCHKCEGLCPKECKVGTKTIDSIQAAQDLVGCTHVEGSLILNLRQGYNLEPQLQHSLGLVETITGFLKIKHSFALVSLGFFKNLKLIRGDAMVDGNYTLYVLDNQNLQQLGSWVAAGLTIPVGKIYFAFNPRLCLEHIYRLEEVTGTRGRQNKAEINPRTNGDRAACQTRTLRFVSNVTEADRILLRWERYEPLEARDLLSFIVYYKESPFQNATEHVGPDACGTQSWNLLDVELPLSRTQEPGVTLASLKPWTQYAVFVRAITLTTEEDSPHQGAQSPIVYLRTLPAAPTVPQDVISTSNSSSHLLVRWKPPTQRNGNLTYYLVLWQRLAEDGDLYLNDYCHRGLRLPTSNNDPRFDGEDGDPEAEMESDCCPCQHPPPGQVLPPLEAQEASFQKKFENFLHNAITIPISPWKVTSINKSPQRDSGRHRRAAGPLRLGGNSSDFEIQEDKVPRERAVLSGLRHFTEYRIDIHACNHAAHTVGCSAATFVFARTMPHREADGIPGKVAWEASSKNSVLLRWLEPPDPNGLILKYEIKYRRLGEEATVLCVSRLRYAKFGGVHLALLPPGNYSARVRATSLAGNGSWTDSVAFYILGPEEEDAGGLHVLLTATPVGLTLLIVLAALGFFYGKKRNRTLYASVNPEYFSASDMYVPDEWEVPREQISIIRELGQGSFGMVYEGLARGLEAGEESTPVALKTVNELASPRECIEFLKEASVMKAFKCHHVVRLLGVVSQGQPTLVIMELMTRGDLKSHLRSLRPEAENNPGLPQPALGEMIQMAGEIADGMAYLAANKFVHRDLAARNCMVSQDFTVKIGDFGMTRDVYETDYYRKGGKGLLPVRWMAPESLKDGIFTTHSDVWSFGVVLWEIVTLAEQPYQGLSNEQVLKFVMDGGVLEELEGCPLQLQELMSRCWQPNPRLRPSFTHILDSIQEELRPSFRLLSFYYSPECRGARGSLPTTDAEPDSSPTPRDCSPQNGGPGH
Sequence of 320 wild-type protein kinases (Homo sapiens, UniProt P24723) (P24723 whole entry): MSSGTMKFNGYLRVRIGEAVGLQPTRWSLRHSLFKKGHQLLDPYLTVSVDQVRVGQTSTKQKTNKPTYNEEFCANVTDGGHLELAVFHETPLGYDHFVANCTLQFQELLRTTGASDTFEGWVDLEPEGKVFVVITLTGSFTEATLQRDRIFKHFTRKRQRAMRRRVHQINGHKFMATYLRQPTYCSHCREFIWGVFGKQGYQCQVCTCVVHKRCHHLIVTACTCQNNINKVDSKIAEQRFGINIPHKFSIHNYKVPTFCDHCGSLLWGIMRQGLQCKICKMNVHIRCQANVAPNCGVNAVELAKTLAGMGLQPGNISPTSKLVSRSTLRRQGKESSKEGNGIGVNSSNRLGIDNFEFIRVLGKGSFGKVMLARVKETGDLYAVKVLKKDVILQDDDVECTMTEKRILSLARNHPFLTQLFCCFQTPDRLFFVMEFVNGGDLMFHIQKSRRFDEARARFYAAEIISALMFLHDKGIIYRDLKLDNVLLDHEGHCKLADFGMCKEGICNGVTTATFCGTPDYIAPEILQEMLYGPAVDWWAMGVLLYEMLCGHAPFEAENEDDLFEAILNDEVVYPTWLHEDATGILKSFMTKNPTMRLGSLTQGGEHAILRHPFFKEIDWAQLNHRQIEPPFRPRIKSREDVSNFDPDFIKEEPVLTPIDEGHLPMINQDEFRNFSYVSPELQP
Sequence of 320 wild-type protein kinases (Homo sapiens, UniProt Q86Y07) (Q86Y07 whole entry): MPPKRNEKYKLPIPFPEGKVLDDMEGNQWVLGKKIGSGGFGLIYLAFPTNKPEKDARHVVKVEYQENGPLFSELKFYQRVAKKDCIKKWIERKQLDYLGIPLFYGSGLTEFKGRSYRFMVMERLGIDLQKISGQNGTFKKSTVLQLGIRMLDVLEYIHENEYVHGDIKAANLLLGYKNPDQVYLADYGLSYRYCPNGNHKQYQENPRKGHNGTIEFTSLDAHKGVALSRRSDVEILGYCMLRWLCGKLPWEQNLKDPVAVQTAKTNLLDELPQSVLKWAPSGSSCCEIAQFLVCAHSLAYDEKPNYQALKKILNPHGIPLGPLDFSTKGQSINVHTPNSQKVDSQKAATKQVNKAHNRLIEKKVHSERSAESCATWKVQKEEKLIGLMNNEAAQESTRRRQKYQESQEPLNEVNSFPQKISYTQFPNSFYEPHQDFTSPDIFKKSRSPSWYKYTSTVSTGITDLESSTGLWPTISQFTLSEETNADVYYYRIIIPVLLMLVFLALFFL

Row | Compound | Residual activity ([1]; 1.0E-06 M) | Residual activity ([1]; 1.0E-07 M) | Residual activity ([2]; 1.0E-06 M) | Residual activity ([2]; 1.0E-07 M) | Residual activity ([3]; 1.0E-06 M) | Residual activity ([3]; 1.0E-07 M) | Residual activity ([4]; ACV-R1, 1.0E-06 M) | Residual activity ([4]; ACV-R1, 1.0E-07 M) | Residual activity, TYRO3 ([5]; assay conc. 1.0E-06 M) | Residual activity, TYRO3 ([5]; assay conc. 1.0E-07 M) | Residual activity, VRK2 ([6]; assay conc. 1.0E-06 M) | Residual activity, VRK2 ([6]; assay conc. 1.0E-07 M) | Residual activity ([7]; ERK7, 1.0E-06 M) | Residual activity ([7]; ERK7, 1.0E-07 M)
1 | C#Cc1cc(Nc2ncnc3cc(I)ccc23)ccc1Cl [Compound 41] | 121 % of control | 128 % of control | 93 % of control | 96 % of control | 91 % of control | 93 % of control | 86 % of control | 91 % of control | 91 % of control | 100 % of control | 97 % of control | 95 % of control | 96 % of control | 94 % of control
2 | C#Cc1cc(Nc2ncnc3cc(OC)c(OC)cc23)ccc1Cl [Compound 45] | 105 % of control | 124 % of control | 99 % of control | 103 % of control | 75 % of control | 90 % of control | 93 % of control | 98 % of control | 58 % of control | 93 % of control | 232 % of control | 87 % of control | 90 % of control | 104 % of control
